Experimental data from PMC13042316 (Open journal of immunology, 2011).

Molecular target: recombinant human MBL (mannose-binding lectin) (Homo sapiens, UniProt P11226)
Experiment: ELISA, inhibition of MBL binding to immobilised mannan

recombinant human MBL (mannose-binding lectin), sequence (P11226 21-248): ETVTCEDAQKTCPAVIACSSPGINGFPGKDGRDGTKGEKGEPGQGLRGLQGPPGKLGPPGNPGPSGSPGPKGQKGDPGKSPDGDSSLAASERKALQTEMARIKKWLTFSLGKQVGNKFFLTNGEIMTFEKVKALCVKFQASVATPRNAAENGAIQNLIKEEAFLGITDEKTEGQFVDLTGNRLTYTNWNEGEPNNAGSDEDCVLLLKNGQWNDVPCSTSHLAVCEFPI

IC50: > 11 mM
Compound: OC[C@H]1O[C@@](CO)(O[C@H]2O[C@H](CO)[C@@H](O)[C@H](O)[C@H]2O)[C@@H](O)[C@@H]1O [sucrose]
